Results taken from patent US11534114B2, “18F labeled amino acids, derivatives thereof and method of making same” (SIMON FRASER UNIVERSITY, priority 2016, dated 2022).

Tested on: U-87 tumor
Assay: Dynamic PET/CT time-activity curves of accumulation in selected organs
Type: in vivo, mice
Settings: time-activity curves (FIG. 41)

CC(C)([18F])CC[C@H](N)C(=O)O [5-[^18F]FHL, 5-[^18F]fluorohomoleucine]
course of activity in U-87 tumor and pancreas after the peak (after peak accumulation): slow progressive efflux
time of peak accumulation in the U-87 tumor and pancreas (intravenous injection, mice bearing U-87 xenograft, 60 min dynamic scan): < 10 min
